Source: the NIST ThermoML archive (doi:10.1021/je900733j)

Key:
[1] = xn = mol fraction of the nth substance listed; details: 101 kPa, Liquid
[2] = 101 kPa, Liquid

CCCCn1cc[n+](C)c1.[Cl-] [1-butyl-3-methylimidazolium chloride] + O
mass density [kg/m3], [1]
Details	x1 = 0.0121	x1 = 0.0381	x1 = 0.0819	x1 = 0.1109	x1 = 0.1399	x1 = 0.2489	x1 = 0.2977	x1 = 0.4083
293.15 K	1007.06	1024.73	1046.21	1055.73	1062.54	1076.98	1080.14	1084.32
298.15 K	1005.53	1022.46	1043.25	1052.62	1059.39	1073.95	1077.15	1081.43
303.15 K	1003.8	1020.07	1040.24	1049.46	1056.2	1070.89	1074.16	1078.53
308.15 K	1001.89	1017.57	1037.17	1046.28	1052.99	1067.82	1071.15	1075.63
313.15 K	999.81	1014.95	1034.06	1043.06	1049.76	1064.72	1068.14	1072.73
318.15 K	997.57	1012.24	1030.89	1039.81	1046.48	1061.63	1065.09	1069.82

CC#N [acetonitrile]
[2]
Details	mass density [kg/m3]
293.15 K	782.04
298.15 K	776.64
303.15 K	771.21
308.15 K	765.75
313.15 K	760.25
318.15 K	754.73

CC#N [acetonitrile] + CCCCn1cc[n+](C)c1.[Cl-]
[1], x2 = 0
Details	mass density [kg/m3]
293.15 K	782.04
298.15 K	776.64
303.15 K	771.21
308.15 K	765.75
313.15 K	760.25
318.15 K	754.73

CN(C)C=O [dimethylformamide]
[2]
Details	mass density [kg/m3]
293.15 K	948.63
298.15 K	943.86
303.15 K	939.08
308.15 K	934.29
313.15 K	929.48
318.15 K	924.68

CN(C)C=O [dimethylformamide] + CCCCn1cc[n+](C)c1.[Cl-]
[1], x2 = 0
Details	mass density [kg/m3]
293.15 K	948.63
298.15 K	943.86
303.15 K	939.08
308.15 K	934.29
313.15 K	929.48
318.15 K	924.68

CO [methanol]
[2]
Details	mass density [kg/m3]
293.15 K	791.3
298.15 K	786.58
303.15 K	781.86
308.15 K	777.11
313.15 K	772.33
318.15 K	767.52

CO [methanol] + CCCCn1cc[n+](C)c1.[Cl-]
[1], x2 = 0
Details	mass density [kg/m3]
293.15 K	791.3
298.15 K	786.58
303.15 K	781.86
308.15 K	777.11
313.15 K	772.33
318.15 K	767.52
